The test deals with T1, Tyrosine-protein phosphatase non-receptor type 1 (Homo sapiens, UniProt P18031).
T1 sequence (P18031 whole entry): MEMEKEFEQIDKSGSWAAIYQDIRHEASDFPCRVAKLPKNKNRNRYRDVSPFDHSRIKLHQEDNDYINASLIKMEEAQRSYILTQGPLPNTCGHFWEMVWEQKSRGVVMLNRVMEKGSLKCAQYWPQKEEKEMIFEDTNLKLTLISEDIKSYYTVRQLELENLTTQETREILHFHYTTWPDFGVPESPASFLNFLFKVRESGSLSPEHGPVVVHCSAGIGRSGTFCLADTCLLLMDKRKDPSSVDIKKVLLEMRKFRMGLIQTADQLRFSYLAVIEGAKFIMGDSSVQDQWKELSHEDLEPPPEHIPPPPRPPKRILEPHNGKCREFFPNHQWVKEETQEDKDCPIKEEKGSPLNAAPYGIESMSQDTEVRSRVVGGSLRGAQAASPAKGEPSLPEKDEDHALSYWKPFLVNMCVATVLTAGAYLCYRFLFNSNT
Put plainly: Binding affinity to PTP1B.

pKi: −log10 of the molar value.

For the compound `O=C(O)C(=O)Nc1sc2c(c1C(=O)O)CCC1(C2)OCCO1`, the pKi is 5.66.

The term pKi denotes the negative decadic logarithm of the Ki, by convention in mol/L. A high value points to a small Ki.

The record behind these values is ChEMBL document CHEMBL1141964, “Molecular docking and 3D-QSAR on 2-(oxalylamino) benzoic acid and its analogues as protein tyrosine phosphatase 1B inhibitors” (Bioorg Med Chem Lett, 2005).
